Assay results from patent US6844353B2, “Fungicidal properties of sampangine and its analogs to agriculturally important fungal plant pathogens” (The United States of America as represented by the …, priority 2003, dated 2005).
Where two headings read alike, the source gives them in different places.

Experiments:
Experiment in all cases: 96-well microtiter plate assay, fungal growth inhibition
C. acutatum = type: cell-based, Colletotrichum acutatum; conditions: for Percent inhibition−Percent Stimulation±SEM: C. acutatum; for inhibition at 0.3 µM / inhibition at 3 µM / inhibition at 30 µM: Colletotrichum acutatum, read-out: Percent inhibition−Percent Stimulation±SEM
Description: (§1) Pathogen production. Isolates of Colletotrichum acutatum Simmonds, Colletotrichum fragariae Brooks, and Colletotrichum gloeosporioides (Penz.) Penz. & Sacc. in Penz. were obtained from B. J. Smith, USDA, ARS, Small Fruit Research Station, Poplarville, Miss. Colletotrichum fragariae (isolate CF63), C. acutatum (isolate CAGoff), and C. gloeosporioides (isolate CG162) were used for all pathogen and bioautography studies. Isolate CF63 is one of the most virulent isolates at infecting strawberry plants and inducing both crown and fruit rot (Smith and Black, 1990). CF63, CAGoff, and CG162 were used as standard test isolates because of our extensive knowledge of these isolates and their known fungicide sensitivity profiles in both bioautography and microtiter formats. The three Colletotrichum species were isolated from strawberry (Fragaria x ananassa Duchesne). Botrytis cinerea Pers.: Fr, was isolated from commercial grape (Vitis vinifera L.) and Fusarium oxysporum Schlechtend: Fr from orchid (Cynoches sp.). Phomopsis viticola (Sacc.) and P. obscurans (Ellis & Everh.) Sutton were from Mike A. Ellis, Ohio State University, Wooster, Ohio. Fungi were grown on potato-dextrose agar (PDA, Difco, Detroit, Mich.) in 9 cm petri dishes and incubated in a growth chamber at 24±2° C. and under cool-white fluorescent lights ([…]·m^−2·sec^−1 light) with 12 hour photoperiod.
(§2) Inoculum preparation. Conidia were harvested from 7-10 day-old cultures by flooding plates with 5 mL of sterile distilled water and dislodging conidia by softly brushing the colonies with an L-shaped glass rod. Conidial suspensions were filtered through sterile miracloth (Calbiochem-Novabiochem Corp., La Jolla, Calif.) to remove mycelia. Conidia concentrations were determined photometrically, from a standard curve based on the percent of transmittance (% T) at 625 nm and suspensions were then adjusted with sterile distilled water to a concentration of 1.0×10^6 conidia/mL.
(§3) Microtiter assay. A standardized 96-well microtiter plate assay developed for discovery of natural product fungicidal agents was used to evaluate naturally occurring antifungal agents from Macaranga monanara. A 96-well microtiter assay was used to determine sensitivity of B. cinerea, C. acutatum, C. fragariae, C. gloeosporioides, F. oxysporum, Phomopsis viticola, and P. obscurans to the various antifungal agents in comparison with known fungicidal standards. Vinclozolin, captan, and thiabendazole, which represent three different modes of action, were used as standards in this experiment. Each fungus was challenged in a dose-response format using test compounds where the final treatment concentrations were 0.3, 3.0 and 30.0 μM. Microtiter plates (Nunc MicroWell, untreated; Roskilde, Denmark) were covered with a plastic lid and incubated in a growth chamber as described previously for fungal growth. Growth was then evaluated by measuring absorbance of each well at 620 nm using a microplate photometer (Packard Spectra Count, Packard Instrument Co., Downers Grove, Ill.). Microtiter plates (Nunc MicroWell, untreated; Roskilde, Denmark) were covered with a plastic lid and incubated in a growth chamber at 24±1° C. and 12 hour photoperiod under 60±5 μmol light. Growth was then evaluated by measuring absorbance of each well at 620 nm using a microplate photometer (Packard Spectra Count, Packard Instrument Co., Downers Grove, Ill.).
(§4) Microbioassy Experimental Design. Chemical sensitivity each of B. cinerea, C. acutatum, C. fragariae, C. gloeosporiodes, F. oxysporum, Phomopsis viticola, and P. obscurans was evaluated using 96-well plate microbioassay format. Each chemical was evaluated in duplicate at each dose (0.3, 3.0 and 30.0 μM). […]

B. cinerea = type: cell-based, Botrytis cinerea; conditions: for Percent inhibition−Percent Stimulation±SEM: B. cinerea; for inhibition at 0.3 µM / inhibition at 3 µM / inhibition at 30 µM: Botrytis cinerea, read-out: Percent inhibition−Percent Stimulation±SEM
Description: as §1, §2, §3, §4

F. oxysporum = type: cell-based, Fusarium oxysporum; conditions: for Percent inhibition−Percent Stimulation±SEM: F. oxysporum; for inhibition at 0.3 µM / inhibition at 3 µM / inhibition at 30 µM: Fusarium oxysporum, read-out: Percent inhibition−Percent Stimulation±SEM
Description: as §1, §2, §3, §4

C. fragariae = type: cell-based, Colletotrichum fragariae; conditions: for Percent inhibition−Percent Stimulation±SEM: C. fragariae; for inhibition at 0.3 µM / inhibition at 3 µM / inhibition at 30 µM: Colletotrichum fragariae, read-out: Percent inhibition−Percent Stimulation±SEM
Description: as §1, §2, §3, §4

C. gloeosporioides = type: cell-based, Colletotrichum gloeosporioides; conditions: for Percent inhibition−Percent Stimulation±SEM: C. gloeosporioides; for inhibition at 0.3 µM / inhibition at 3 µM / inhibition at 30 µM: Colletotrichum gloeosporioides, read-out: Percent inhibition−Percent Stimulation±SEM
Description: as §1, §2, §3, §4

SMILES: N#CC(CCc1ccc(Cl)cc1)(Cn1cncn1)c1ccccc1 (stereo not drawn) [Fenbucanazole]
- Percent inhibition−Percent Stimulation±SEM (C. acutatum; 0.3 μM, 48 hrs): 13.0 ± 5.8%
- Percent inhibition−Percent Stimulation±SEM (C. acutatum; 0.3 μM, 72 hrs): 16.3 ± 5.4%
- Percent inhibition−Percent Stimulation±SEM (C. acutatum; 3.0 μM, 48 hrs): −3.8 ± 4.8%
- Percent inhibition−Percent Stimulation±SEM (C. acutatum; 3.0 μM, 72 hrs): −89.9 ± 6.8%
- Percent inhibition−Percent Stimulation±SEM (C. acutatum; 30 μM, 48 hrs): −39.2 ± 3.3%
- Percent inhibition−Percent Stimulation±SEM (C. acutatum; 30 μM, 72 hrs): −21.7 ± 5.8%
- Percent inhibition−Percent Stimulation±SEM (B. cinerea; 0.3 μM, 48 hrs): −46.0 ± 34.2%
- Percent inhibition−Percent Stimulation±SEM (B. cinerea; 0.3 μM, 72 hrs): −49.6 ± 24.7%
- Percent inhibition−Percent Stimulation±SEM (B. cinerea; 3.0 μM, 48 hrs): −35.9 ± 28.3%
- Percent inhibition−Percent Stimulation±SEM (B. cinerea; 3.0 μM, 72 hrs): −47.0 ± 23.0%
- Percent inhibition−Percent Stimulation±SEM (B. cinerea; 30 μM, 48 hrs): 17.6 ± 52.2%
- Percent inhibition−Percent Stimulation±SEM (B. cinerea; 30 μM, 72 hrs): −29.9 ± 24.2%
- Percent inhibition−Percent Stimulation±SEM (F. oxysporum; 0.3 μM, 48 hrs): −15.3 ± 2.6%
- Percent inhibition−Percent Stimulation±SEM (F. oxysporum; 0.3 μM, 72 hrs): −10.4 ± 2.7%
- Percent inhibition−Percent Stimulation±SEM (F. oxysporum; 3.0 μM, 48 hrs): −33.1 ± 4.2%
- Percent inhibition−Percent Stimulation±SEM (F. oxysporum; 3.0 μM, 72 hrs): −29.3 ± 2.6%
- Percent inhibition−Percent Stimulation±SEM (F. oxysporum; 30 μM, 48 hrs): −45.5 ± 3.4%
- Percent inhibition−Percent Stimulation±SEM (F. oxysporum; 30 μM, 72 hrs): −44.5 ± 2.5%
- Percent inhibition−Percent Stimulation±SEM (C. fragariae; 0.3 μM, 48 hrs): −26.8 ± 14.1%
- Percent inhibition−Percent Stimulation±SEM (C. fragariae; 0.3 μM, 72 hrs): 19.0 ± 7.7%
- Percent inhibition−Percent Stimulation±SEM (C. fragariae; 3.0 μM, 48 hrs): −37.0 ± 15.3%
- Percent inhibition−Percent Stimulation±SEM (C. fragariae; 3.0 μM, 72 hrs): 4.7 ± 4.2%
- Percent inhibition−Percent Stimulation±SEM (C. fragariae; 30 μM, 48 hrs): −99.3 ± 1.1%
- Percent inhibition−Percent Stimulation±SEM (C. fragariae; 30 μM, 72 hrs): −97.7 ± 0.6%
- Percent inhibition−Percent Stimulation±SEM (C. gloeosporioides; 0.3 μM, 48 hrs): −86.1 ± 1.4%
- Percent inhibition−Percent Stimulation±SEM (C. gloeosporioides; 0.3 μM, 72 hrs): −59.1 ± 3.6%
- Percent inhibition−Percent Stimulation±SEM (C. gloeosporioides; 3.0 μM, 48 hrs): −95.0 ± 1.1%
- Percent inhibition−Percent Stimulation±SEM (C. gloeosporioides; 3.0 μM, 72 hrs): −98.1 ± 0.4%
- Percent inhibition−Percent Stimulation±SEM (C. gloeosporioides; 30 μM, 48 hrs): −99.0 ± 0.7%
- Percent inhibition−Percent Stimulation±SEM (C. gloeosporioides; 30 μM, 72 hrs): −99.6 ± 0.2%

SMILES: CC(C)NC(=O)N1CC(=O)N(c2cc(Cl)cc(Cl)c2)C1=O [Iprodione]
- inhibition at 0.3 µM (C. acutatum; 48 h): -26.4 ± 10.7%
- inhibition at 3 µM (C. acutatum; 48 h): -18.1 ± 3.2%
- inhibition at 30 µM (C. acutatum; 48 h): -27.9 ± 5.5%
- inhibition at 0.3 µM (C. acutatum; 72 h): -26.8 ± 9.9%
- inhibition at 3 µM (C. acutatum; 72 h): -10.7 ± 3.1%
- inhibition at 30 µM (C. acutatum; 72 h): -64.8 ± 4%
- inhibition at 0.3 µM (B. cinerea; 48 h): -10.4 ± 11.1%
- inhibition at 3 µM (B. cinerea; 48 h): 34.2 ± 29.1%
- inhibition at 30 µM (B. cinerea; 48 h): 38.1 ± 29.3%
- inhibition at 0.3 µM (B. cinerea; 72 h): 28.3 ± 27.9%
- inhibition at 3 µM (B. cinerea; 72 h): 43.3 ± 20.5%
- inhibition at 30 µM (B. cinerea; 72 h): 41.3 ± 20.6%
- inhibition at 0.3 µM (F. oxysporum; 48 h): 1.8 ± 2.6%
- inhibition at 3 µM (F. oxysporum; 48 h): 8.3 ± 3.1%
- inhibition at 30 µM (F. oxysporum; 48 h): 7.7 ± 4.6%
- inhibition at 0.3 µM (F. oxysporum; 72 h): -2.3 ± 3%
- inhibition at 3 µM (F. oxysporum; 72 h): -4.1 ± 4%
- inhibition at 30 µM (F. oxysporum; 72 h): -11.2 ± 5.3%
- inhibition at 0.3 µM (C. fragariae; 48 h): -36.4 ± 12.3%
- inhibition at 3 µM (C. fragariae; 48 h): -42.6 ± 10.4%
- inhibition at 30 µM (C. fragariae; 48 h): -63.2 ± 10.7%
- inhibition at 0.3 µM (C. fragariae; 72 h): -17.1 ± 3.6%
- inhibition at 3 µM (C. fragariae; 72 h): -24 ± 4.6%
- inhibition at 30 µM (C. fragariae; 72 h): -57.7 ± 12%
- inhibition at 0.3 µM (C. gloeosporioides; 48 h): -33.4 ± 10.1%
- inhibition at 3 µM (C. gloeosporioides; 48 h): -49.6 ± 8.4%
- inhibition at 30 µM (C. gloeosporioides; 48 h): 23.4 ± 9.1%
- inhibition at 0.3 µM (C. gloeosporioides; 72 h): -17.5 ± 6.7%
- inhibition at 3 µM (C. gloeosporioides; 72 h): -30.7 ± 4%
- inhibition at 30 µM (C. gloeosporioides; 72 h): -17.4 ± 7.9%
